The values that follow come from patent US10617755B2, “Combination therapy for the treatment of glioblastoma” (Genentech, Inc., priority 2013, dated 2020).

For assay [1], the system named is newly diagnosed glioblastoma. Description: AvaGlio Phase III trial: bevacizumab plus temozolomide and radiotherapy versus placebo plus temozolomide and radiotherapy. The format is in vivo, human. Conditions: for OS hazard ratio (HR), multivariate Cox proportional hazard model: adjusted for prognostic covariates; for OS benefit, multivariate analysis (result in words): known prognostic covariates considered. From the text:
The AvaGlio trial evaluated the efficacy and safety of bevacizumab in combination temozolomide and radiotherapy for newly diagnosed glioblastoma. This study was designed as a prospective, randomized, double blind, placebo controlled Phase III evaluation of bevacizumab plus chemotherapy versus chemotherapy alone. To be eligible, patients must have had newly diagnosed glioblastoma with a tissue diagnosis that has been established following either a surgical resection or biopsy. By adding bevacizumab to chemotherapy and radiotherapy, the AvaGlio trial aimed to improve overall survival (OS) and progression-free survival (PFS) for this group of patients who had limited therapeutic options and faced a particularly poor prognosis. The primary objective was to compare OS and PFS of patients randomized to temozolomide (TMZ) and radiotherapy only or to temozolomide and radiotherapy plus bevacizumab.
This trial consisted of three phases (Concurrent, Maintenance, and Monotherapy) and two (2) treatment arms: TMZ and radiotherapy (RT) (Arm 1), and TMZ and RT plus bevacizumab (Arm 2). Patients were randomly assigned (1:1) to either arm.
Arm 1 (chemotherapy and radiotherapy alone): Eligible patients received 2 Gy RT 5 days a week for 6 weeks and 75 mg/m^2 TMZ orally daily for 6 weeks from the first day to the last day of RT in combination with 10 mg/kg placebo i.v. every 2 weeks. After a 4-week treatment break, eligible patients received 6 cycles of 150-200 mg/m^2 TMZ on days 1-5 of an every-4-week schedule in combination with 10 mg/kg placebo i.v. every 2 weeks. TMZ was administered orally starting with a 150 mg/m^2 dose that could be escalated. Placebo monotherapy (15 mg/kg every 3 weeks) was then continued until disease progression. Upon disease progression, patients were treated at the investigator's discretion.
Arm 2 (chemotherapy and radiotherapy plus bevacizumab): Eligible patients received 2 Gy RT 5 days a week for 6 weeks and 75 mg/m^2 TMZ orally daily for 6 weeks from the first day to the last day of RT in combination with 10 mg/kg bevacizumab i.v. every 2 weeks. After a 4-week treatment break, eligible patients received 6 cycles of 150-200 mg/m^2 TMZ on days 1-5 of an every-4-week schedule in combination with 10 mg/kg bevaciumab i.v. every 2 weeks. TMZ was administered orally starting with a 150 mg/m^2 dose that could be escalated. Bevaciazumab monotherapy (15 mg/kg every 3 weeks) was then continued until disease progression. Upon disease progression, patients were treated at the investigator's discretion.
The initial bevacizumab infusion was over 90 minutes, with subsequent infusions over 60 minutes and then 30 minutes, as tolerated. Bevacizumab was administered on the last day of RT and TMZ treatment, i.e., the day before the start of the TMZ treatment break.
Analyses of PFS were based on tumor assessments MacDonald Response Criteria (modified WHO criteria) using MRI of the brain and a neurological evalution as described in Macdonald et al. (J. Clin. Oncol. 8: 1277-80, 1990). Tumor assessments were performed at baseline, at the end of the 4-week treatment break, then every 8 weeks.
Next, we classified the 349 samples from the AvaGlio trial for which biomarkers could be evaluated into the gene expression subtypes defined by Phillips (Cancer Cell. 9(3): 157-173, 2006).
Samples were analyzed with the same Nanostring probe set used to derive the subtype-specific centroids and expression scores for the same genes were obtained using the same technology and probe sequences. Of the 349 samples, 10 samples from patients carrying mutation(s) in the isocitrate dehydrogenase 1 (IDH1) gene, known to be associated with good prognoses, were excluded from this analysis. Of the remaining 339 IDH1 wild-type samples, raw Nanostring counts were log 2 transformed and the mean expression and standard deviation across all samples was adjusted to the same reference values applied to the training set of Example 2 above. […]

Assay [2] concerns newly diagnosed glioblastoma. Described as above. The format is in vivo, human. Conditions: known prognostic covariates considered.

For “bevacizumab: recombinant humanized anti-VEGF monoclonal antibody generated according to Presta et al.; VL SEQ ID NO: 1, VH SEQ ID NO: 2”, the “OS hazard ratio (HR), multivariate Cox proportional hazard model” value was 0.42 in assay [1] (PN subtype (Phillips), IDH1 wild-type, 95% CI 0.24-0.72, p=0.002) and 1.03 in assay [1] (non-PN subtype (Phillips), 95% CI 0.76-1.39, p=0.863). Moreover, the “extension of median OS in the treatment arm relative to the placebo arm” value in assay [1] (PN subtype (Phillips), n=99) is recorded as “about 4.9 months”. Moreover, the “PFS hazard ratio (HR), treatment arm relative to placebo arm” value in assay [1] (PN subtype (Phillips), n=99, 95% CI 0.37-0.9, p=0.015) stood at 0.58. In addition, the “OS hazard ratio (HR), treatment arm relative to placebo arm” value in assay [1] (PN subtype (Phillips), n=99, 95% CI 0.4-0.99, p=0.043) is listed as 0.63. For the same substance, in assay [1] (PN subtype (Phillips), placebo arm 12.2 months), the “median OS in the treatment arm” value was found to be 17.1 months. The “OS benefit, multivariate analysis (result in words)” value is reported as “statistically significant benefit in extending OS” in assay [1] (Phillips-classified PN subtype), “do not show significant OS benefit” in assay [1] (Phillips-classified non-PN subtype), “significant OS benefit” in assay [2] (TCGA-classified PN subtype) and “do not show significant OS benefit” in assay [2] (TCGA-classified non-PN subtype). In assay [1] (Phillips-classified proneural (PN) subtype, IDH1 wild-type, n=99), the “extension of median PFS in the treatment arm relative to the placebo arm” value is listed as “about 4.3 months”. The “increase in median progression-free survival (PFS) compared to the placebo arm” value in assay [1] (all patients, treatment arm (RT/TMZ/bevacizumab) vs placebo arm) was “about 4.4 months”. For the same substance, the “median overall survival (OS), difference between arms” value in assay [1] (all patients, treatment arm vs placebo arm) is “not significantly different between arms”. In assay [1] (patients having glioblastoma of the PN type), the “PFS and OS improvement (result in words)” value is “significant PFS and OS improvement”.
